One data set concerns the target CXCR4 (Homo sapiens, UniProt P61073). Description: Ca2+-assay method 2 (Flexstation, SDF-1 induced calcium mobilization). Particulars: method 2 (Ex. 54-160), mouse pre-B cell line 300-19 with human CXCR4, 10 nM SDF-1; read-out: IC50 (nM) Ca^2+ assay. On the set-up: expressed in transfected cells; host or cells: mouse pre-B cell line 300-19. The data set is classed as cell-based. (Calcium assays in cells follow changes in intracellular calcium, usually with a dye or a luminescent sensor.)

The nature of a further data set: in vitro. The following applies: human.
Data set [1] deals with human red blood cells (hRBC). Kind of data set: Hemolysis. It counts as cell-based. Put shortly: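 Washed fresh human erythrocytes (20% v/v, about 0.9×10^9 cells/ml final) incubated with peptide at 100 μM for 1 h at 37° C. Supernatant diluted 20-fold and OD540 read. Percent hemolysis relative to 0.1% Triton X-100 in H2O (100%), with PBS alone as 0%.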

Structures are written as SMILES. Bridge positions count the residues as written; N and C are the ends. Square brackets hold non-standard residues; d marks the D form. Peptide text beside a SMILES is read from it. Phe(4-F) = N[C@@H](Cc1ccc(F)cc1)C(=O)O; 2Nal = N[C@@H](Cc1ccc2ccccc2c1)C(=O)O; Cit = NC(=O)NCCC[C@H](N)C(=O)O

In general, IC50 refers to the concentration that inhibits the measured activity by half. The GI50 is the concentration that inhibits growth by half. Read a low GI50 as greater sensitivity of the cells.
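For GI50 in this document: MTT reduction read as absorbance at 595 nm, blank-corrected and expressed as percent growth relative to the time-zero cell reading, triplicate wells per concentration.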

Chain of CXCR4 (P61073 whole entry): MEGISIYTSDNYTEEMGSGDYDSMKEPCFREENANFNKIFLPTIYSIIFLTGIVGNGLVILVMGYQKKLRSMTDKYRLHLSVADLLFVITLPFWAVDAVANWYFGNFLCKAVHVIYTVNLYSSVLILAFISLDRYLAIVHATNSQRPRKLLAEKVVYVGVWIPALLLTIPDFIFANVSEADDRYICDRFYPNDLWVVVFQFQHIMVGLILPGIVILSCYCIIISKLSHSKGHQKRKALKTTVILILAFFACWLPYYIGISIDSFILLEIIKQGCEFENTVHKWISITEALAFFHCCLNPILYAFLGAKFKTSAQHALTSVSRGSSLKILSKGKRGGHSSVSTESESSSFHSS

In the case of `N=C(N)NCCC[C@@H]1NC(=O)[C@@H]2CSSC[C@H](NC(=O)[C@H](Cc3ccc4ccccc4c3)NC(=O)[C@H](CCCNC(=N)N)NC(=O)[C@H](CCCNC(=N)N)NC(=O)[C@H]3CCCN3C(=O)CNC1=O)C(=O)N[C@@H](Cc1ccc(O)cc1)C(=O)N[C@@H](CCC(N)=O)C(=O)N[C@@H](CCCCN)C(=O)N1CCC[C@@H]1C(=O)N1CCC[C@H]1C(=O)N[C@@H](CC(=O)O)C(=O)N[C@@H](CCCNC(=N)N)C(=O)N[C@@H](CCCNC(N)=O)C(=O)N2` [Ex. 88] (cyclo(DR[Cit]CRG[dP]RR[2Nal]CYQK[dP]P); disulfide 4-11), the IC50 on CXCR4 was found to be 2.5 nM. Besides, the GI50 at 48 h in “in vitro” worked out at 44000 nM. In addition, in data set [1], the Hemolysis at 100 μM is 0%.

For `N=C(N)NCCC[C@@H]1NC(=O)[C@@H]2CSSC[C@H](NC(=O)[C@H](Cc3ccc4ccccc4c3)NC(=O)[C@H](CCCNC(=N)N)NC(=O)[C@H](CCCNC(=N)N)NC(=O)[C@H]3CCCN3C(=O)CNC1=O)C(=O)N[C@@H](Cc1ccc(O)cc1)C(=O)N[C@@H](CCC(N)=O)C(=O)N[C@@H](CCCCN)C(=O)N1CCC[C@@H]1C(=O)N1CCC[C@H]1C(=O)N[C@@H](CO)C(=O)N[C@@H](CCCNC(=N)N)C(=O)N[C@@H](CCCNC(N)=O)C(=O)N2` [Ex. 89] (cyclo(SR[Cit]CRG[dP]RR[2Nal]CYQK[dP]P); disulfide 4-11), the IC50 at CXCR4 turned out to be 0.5 nM. The molecule further came in with a GI50 at 48 h in the data set “in vitro” of 50000 nM. In data set [1], this molecule displayed a Hemolysis at 100 μM of 0%.

As for `CC(C)[C@@H]1NC(=O)[C@@H]2CCCN2C(=O)[C@H]2CCCN2C(=O)[C@H](CCCCN)NC(=O)[C@H](CCC(N)=O)NC(=O)[C@H](Cc2ccc(O)cc2)NC(=O)[C@@H]2CSSC[C@H](NC(=O)[C@H](CCCNC(N)=O)NC(=O)[C@H](CCCNC(=N)N)NC1=O)C(=O)N[C@@H](CCCNC(=N)N)C(=O)NCC(=O)N1CCC[C@@H]1C(=O)N[C@@H](CCCNC(=N)N)C(=O)N[C@@H](CCCNC(=N)N)C(=O)N[C@@H](Cc1ccc3ccccc3c1)C(=O)N2` [Ex. 90] (cyclo(VR[Cit]CRG[dP]RR[2Nal]CYQK[dP]P); disulfide 4-11), at CXCR4, the IC50 was determined as 19.5 nM. This molecule also gave a GI50 at 48 h in “in vitro” of 57000 nM. Further, in data set [1], the Hemolysis at 100 μM turned out to be 0.1%.

Take `CSCC[C@@H]1NC(=O)[C@@H]2CCCN2C(=O)[C@H]2CCCN2C(=O)[C@H](CCCCN)NC(=O)[C@H](CCC(N)=O)NC(=O)[C@H](Cc2ccc(O)cc2)NC(=O)[C@@H]2CSSC[C@H](NC(=O)[C@H](CCCNC(N)=O)NC(=O)[C@H](CCCNC(=N)N)NC1=O)C(=O)N[C@@H](CCCNC(=N)N)C(=O)NCC(=O)N1CCC[C@@H]1C(=O)N[C@@H](CCCNC(=N)N)C(=O)N[C@@H](CCCNC(=N)N)C(=O)N[C@@H](Cc1ccc3ccccc3c1)C(=O)N2` [Ex. 91] (cyclo(MR[Cit]CRG[dP]RR[2Nal]CYQK[dP]P); disulfide 4-11): on CXCR4, the half-inhibitory concentration (IC50) amounted to 2.1 nM. The same molecule returned a GI50 at 48 h in “in vitro” of 48000 nM. The Hemolysis at 100 μM in data set [1] worked out at 0.2%.

With `N=C(N)NCCC[C@@H]1NC(=O)[C@@H]2CSSC[C@H](NC(=O)[C@H](Cc3ccc4ccccc4c3)NC(=O)[C@H](CCCNC(=N)N)NC(=O)[C@H](CCCNC(=N)N)NC(=O)[C@H]3CCCN3C(=O)CNC1=O)C(=O)N[C@@H](Cc1ccc(O)cc1)C(=O)N[C@@H](CCC(N)=O)C(=O)N[C@@H](CCCCN)C(=O)N1CCC[C@@H]1C(=O)N1CCC[C@H]1C(=O)N[C@@H](Cc1ccc(O)cc1)C(=O)N[C@@H](CCCNC(=N)N)C(=O)N[C@@H](CC(N)=O)C(=O)N2` [Ex. 92] (cyclo(YRNCRG[dP]RR[2Nal]CYQK[dP]P); disulfide 4-11), at CXCR4, the 50% inhibitory concentration (IC50) came out at 1.1 nM. Moreover, in the data set “in vitro”, the GI50 at 48 h is 53000 nM. In addition, the Hemolysis at 100 μM in data set [1] is 0.5%.

For the molecule `N=C(N)NCCC[C@@H]1NC(=O)[C@@H]2CSSC[C@H](NC(=O)[C@H](Cc3ccc4ccccc4c3)NC(=O)[C@H](CCCNC(=N)N)NC(=O)[C@H](CCCNC(=N)N)NC(=O)[C@H]3CCCN3C(=O)CNC1=O)C(=O)N[C@@H](Cc1ccc(O)cc1)C(=O)N[C@@H](CCC(N)=O)C(=O)N[C@@H](CCCCN)C(=O)N1CCC[C@@H]1C(=O)N1CCC[C@H]1C(=O)N[C@@H](Cc1ccc(O)cc1)C(=O)N[C@@H](CCCNC(=N)N)C(=O)N[C@@H](CC(=O)O)C(=O)N2` [Ex. 93] (cyclo(YRDCRG[dP]RR[2Nal]CYQK[dP]P); disulfide 4-11), at CXCR4, the half-inhibitory concentration (IC50) was 4.3 nM. Besides, the GI50 at 48 h in the data set “in vitro” is greater than 100000 nM. Moreover, the Hemolysis at 100 μM in data set [1] is 0.2%.

Take `N=C(N)NCCC[C@@H]1NC(=O)[C@@H]2CSSC[C@H](NC(=O)[C@H](Cc3ccc4ccccc4c3)NC(=O)[C@H](CCCNC(=N)N)NC(=O)[C@H](CCCNC(=N)N)NC(=O)[C@H]3CCCN3C(=O)CNC1=O)C(=O)N[C@@H](Cc1ccc(O)cc1)C(=O)N[C@@H](CCC(N)=O)C(=O)N[C@@H](CCCCN)C(=O)N1CCC[C@@H]1C(=O)N1CCC[C@H]1C(=O)N[C@@H](Cc1ccc(O)cc1)C(=O)N[C@@H](CCCNC(=N)N)C(=O)N[C@@H](CCCCN)C(=O)N2` [Ex. 94] (cyclo(YRKCRG[dP]RR[2Nal]CYQK[dP]P); disulfide 4-11): the concentration for half-maximal inhibition (IC50) at CXCR4 came out at 2.5 nM. Further, it took 45000 nM to inhibit growth in “in vitro” by half (GI50 at 48 h). In data set [1], the Hemolysis at 100 μM was 0.2%.

Consider `C[C@@H]1NC(=O)[C@H](CCCNC(=N)N)NC(=O)[C@H](Cc2ccc(O)cc2)NC(=O)[C@@H]2CCCN2C(=O)[C@H]2CCCN2C(=O)[C@H](CCCCN)NC(=O)[C@H](CCC(N)=O)NC(=O)[C@H](Cc2ccc(O)cc2)NC(=O)[C@@H]2CSSC[C@H](NC1=O)C(=O)N[C@@H](CCCNC(=N)N)C(=O)NCC(=O)N1CCC[C@@H]1C(=O)N[C@@H](CCCNC(=N)N)C(=O)N[C@@H](CCCNC(=N)N)C(=O)N[C@@H](Cc1ccc3ccccc3c1)C(=O)N2` [Ex. 95] (cyclo(YRACRG[dP]RR[2Nal]CYQK[dP]P); disulfide 4-11), for which the IC50 on CXCR4 amounted to 2.9 nM. The concentration for 50% growth inhibition (GI50) at 48 h in the data set “in vitro” is 41000 nM. The Hemolysis at 100 μM in data set [1] was determined as 0.1%.

With `N=C(N)NCCC[C@@H]1NC(=O)[C@@H]2CSSC[C@H](NC(=O)[C@H](Cc3ccc4ccccc4c3)NC(=O)[C@H](CCCNC(=N)N)NC(=O)[C@H](CCCNC(=N)N)NC(=O)[C@H]3CCCN3C(=O)CNC1=O)C(=O)N[C@@H](Cc1ccc(O)cc1)C(=O)N[C@@H](CCC(N)=O)C(=O)N[C@@H](CCCCN)C(=O)N1CCC[C@@H]1C(=O)N1CCC[C@H]1C(=O)N[C@@H](Cc1ccc(O)cc1)C(=O)N[C@@H](CCCNC(=N)N)C(=O)N[C@@H](CO)C(=O)N2` [Ex. 96] (cyclo(YRSCRG[dP]RR[2Nal]CYQK[dP]P); disulfide 4-11), the 50% inhibitory concentration (IC50) on CXCR4 was 3 nM. In “in vitro”, this molecule gave a 50% growth inhibitory concentration (GI50) at 48 h of 69000 nM. In data set [1], this molecule gave a Hemolysis at 100 μM of 1%.

Turning to `CC(C)C[C@@H]1NC(=O)[C@H](CCCNC(=N)N)NC(=O)[C@H](Cc2ccc(O)cc2)NC(=O)[C@@H]2CCCN2C(=O)[C@H]2CCCN2C(=O)[C@H](CCCCN)NC(=O)[C@H](CCC(N)=O)NC(=O)[C@H](Cc2ccc(O)cc2)NC(=O)[C@@H]2CSSC[C@H](NC1=O)C(=O)N[C@@H](CCCNC(=N)N)C(=O)NCC(=O)N1CCC[C@@H]1C(=O)N[C@@H](CCCNC(=N)N)C(=O)N[C@@H](CCCNC(=N)N)C(=O)N[C@@H](Cc1ccc3ccccc3c1)C(=O)N2` [Ex. 97] (cyclo(YRLCRG[dP]RR[2Nal]CYQK[dP]P); disulfide 4-11), the IC50 on CXCR4 stood at 4.3 nM. The molecule further showed a GI50 at 48 h in “in vitro” of 44000 nM. The molecule also came in with a Hemolysis at 100 μM in data set [1] of 0.8%.

In the case of `CC(C)[C@@H]1NC(=O)[C@H](CCCNC(=N)N)NC(=O)[C@H](Cc2ccc(O)cc2)NC(=O)[C@@H]2CCCN2C(=O)[C@H]2CCCN2C(=O)[C@H](CCCCN)NC(=O)[C@H](CCC(N)=O)NC(=O)[C@H](Cc2ccc(O)cc2)NC(=O)[C@@H]2CSSC[C@H](NC1=O)C(=O)N[C@@H](CCCNC(=N)N)C(=O)NCC(=O)N1CCC[C@@H]1C(=O)N[C@@H](CCCNC(=N)N)C(=O)N[C@@H](CCCNC(=N)N)C(=O)N[C@@H](Cc1ccc3ccccc3c1)C(=O)N2` [Ex. 98] (cyclo(YRVCRG[dP]RR[2Nal]CYQK[dP]P); disulfide 4-11), the IC50 on CXCR4 is 3.9 nM. The molecule also gave a GI50 at 48 h in the data set “in vitro” of 41000 nM. In addition, in data set [1], the Hemolysis at 100 μM came out at 1%.

Consider `N=C(N)NCCC[C@@H]1NC(=O)[C@@H]2CSSC[C@H](NC(=O)[C@H](Cc3ccc4ccccc4c3)NC(=O)[C@H](CCCNC(=N)N)NC(=O)[C@H](CCCNC(=N)N)NC(=O)[C@H]3CCCN3C(=O)CNC1=O)C(=O)N[C@@H](Cc1ccc(O)cc1)C(=O)N[C@@H](CCC(N)=O)C(=O)N[C@@H](CCCCN)C(=O)N1CCC[C@@H]1C(=O)N1CCC[C@H]1C(=O)N[C@@H](Cc1ccc(O)cc1)C(=O)N[C@@H](CCCNC(=N)N)C(=O)N[C@@H](Cc1ccc(F)cc1)C(=O)N2` [Ex. 99] (cyclo(YR[Phe(4-F)]CRG[dP]RR[2Nal]CYQK[dP]P); disulfide 4-11), for which, at CXCR4, the IC50 was found to be 4.2 nM. Besides, growth in the data set “in vitro” was halved (GI50 at 48 h) at 40000 nM. The Hemolysis at 100 μM in data set [1] stood at 1.1%.

On to `CSCC[C@@H]1NC(=O)[C@H](CCCNC(=N)N)NC(=O)[C@H](Cc2ccc(O)cc2)NC(=O)[C@@H]2CCCN2C(=O)[C@H]2CCCN2C(=O)[C@H](CCCCN)NC(=O)[C@H](CCC(N)=O)NC(=O)[C@H](Cc2ccc(O)cc2)NC(=O)[C@@H]2CSSC[C@H](NC1=O)C(=O)N[C@@H](CCCNC(=N)N)C(=O)NCC(=O)N1CCC[C@@H]1C(=O)N[C@@H](CCCNC(=N)N)C(=O)N[C@@H](CCCNC(=N)N)C(=O)N[C@@H](Cc1ccc3ccccc3c1)C(=O)N2` [Ex. 100] (cyclo(YRMCRG[dP]RR[2Nal]CYQK[dP]P); disulfide 4-11), for which the IC50 at CXCR4 was 7 nM. In the data set “in vitro”, this molecule displayed a GI50 at 48 h of 43000 nM. The same molecule returned a Hemolysis at 100 μM in data set [1] of 0.8%.

For the origin of these results see patent US8895695B2, “Template-fixed beta-hairpin peptidomimetics with CXCR4 antagonizing activity” (priority 2003, dated 2014).
